Experimental data reported in publication PMC10643470, “Knockout or inhibition of USP30 protects dopaminergic neurons in a Parkinson’s disease mouse model” (Nature Communications, 2023).
“And” between values parts separate entries of the source, which are not always exact repeats. Identical values can stand only once. Like-named read-outs stand apart in the source and are kept apart here.

Columns and labels:
[1] = biological target: USP46/UAF1 (Homo sapiens, UniProt P62068); assay: DUB/cathepsin selectivity biochemical assay
[2] = system: TOM20 ubiquitylation in HeLa cells overexpressing PARKIN; assay: Cell TOM20 ubiquitination assay (HeLa YFP-Parkin + A/O); format: cell-based, human; conditions: for EC50: Homo sapiens, 1.5 h
Protocol: Hela cells overexpressing YFP-Parkin were treated with 1 µM Antimycin A and 1 µM Oligomycin A (AA/OA) and test compound or DMSO for 90 mins. Following treatment, media was removed, and cells were washed in DPBS and then lysed in NP40 lysis buffer on ice. […] The bands corresponding to all forms of ubiquitylated TOM20 were quantified and normalized to the same bands for AA/OA treated cells.

[3] = biological target: USP8 (Homo sapiens, UniProt P40818); assay: DUB/cathepsin selectivity biochemical assay
Chain of USP8 (P40818 whole entry, species assumed): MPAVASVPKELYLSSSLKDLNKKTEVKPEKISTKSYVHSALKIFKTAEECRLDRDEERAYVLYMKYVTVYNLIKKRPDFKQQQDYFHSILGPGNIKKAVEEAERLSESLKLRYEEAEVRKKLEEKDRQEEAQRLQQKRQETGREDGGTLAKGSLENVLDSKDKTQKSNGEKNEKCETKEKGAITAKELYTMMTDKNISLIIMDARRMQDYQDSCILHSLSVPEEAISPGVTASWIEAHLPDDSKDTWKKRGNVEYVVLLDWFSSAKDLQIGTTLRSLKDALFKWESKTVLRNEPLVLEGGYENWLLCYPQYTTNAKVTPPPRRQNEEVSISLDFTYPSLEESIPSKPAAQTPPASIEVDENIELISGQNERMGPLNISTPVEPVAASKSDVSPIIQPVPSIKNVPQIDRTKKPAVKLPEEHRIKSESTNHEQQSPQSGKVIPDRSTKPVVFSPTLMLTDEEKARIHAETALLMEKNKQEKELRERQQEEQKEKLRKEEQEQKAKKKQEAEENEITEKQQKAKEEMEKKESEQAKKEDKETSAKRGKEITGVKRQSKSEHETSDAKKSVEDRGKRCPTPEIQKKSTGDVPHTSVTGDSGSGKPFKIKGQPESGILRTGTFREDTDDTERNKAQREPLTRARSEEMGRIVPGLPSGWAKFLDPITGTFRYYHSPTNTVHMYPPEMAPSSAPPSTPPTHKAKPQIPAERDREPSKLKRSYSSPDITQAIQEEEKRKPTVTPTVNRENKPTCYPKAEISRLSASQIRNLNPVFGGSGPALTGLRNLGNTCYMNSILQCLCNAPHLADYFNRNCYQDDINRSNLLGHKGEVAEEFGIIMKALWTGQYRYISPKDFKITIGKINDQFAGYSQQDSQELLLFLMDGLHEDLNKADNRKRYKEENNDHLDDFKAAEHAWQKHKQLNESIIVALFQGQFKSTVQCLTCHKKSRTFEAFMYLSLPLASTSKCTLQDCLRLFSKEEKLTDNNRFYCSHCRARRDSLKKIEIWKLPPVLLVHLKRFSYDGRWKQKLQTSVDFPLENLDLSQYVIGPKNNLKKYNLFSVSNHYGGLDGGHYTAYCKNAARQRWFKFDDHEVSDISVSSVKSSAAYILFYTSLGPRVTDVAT

[4] = biological target: YOD1 (Homo sapiens, UniProt Q5VVQ6); assay: DUB/cathepsin selectivity biochemical assay
[5] = biological target: USP32 (Homo sapiens, UniProt Q8NFA0); assay: DUB/cathepsin selectivity biochemical assay
[6] = biological target: MINDY2 (Homo sapiens, UniProt Q8NBR6); assay: DUB/cathepsin selectivity biochemical assay
[7] = biological target: MINDY3 (Homo sapiens, UniProt Q9H8M7); assay: DUB/cathepsin selectivity biochemical assay
Chain of MINDY3 (Q9H8M7 whole entry, species assumed): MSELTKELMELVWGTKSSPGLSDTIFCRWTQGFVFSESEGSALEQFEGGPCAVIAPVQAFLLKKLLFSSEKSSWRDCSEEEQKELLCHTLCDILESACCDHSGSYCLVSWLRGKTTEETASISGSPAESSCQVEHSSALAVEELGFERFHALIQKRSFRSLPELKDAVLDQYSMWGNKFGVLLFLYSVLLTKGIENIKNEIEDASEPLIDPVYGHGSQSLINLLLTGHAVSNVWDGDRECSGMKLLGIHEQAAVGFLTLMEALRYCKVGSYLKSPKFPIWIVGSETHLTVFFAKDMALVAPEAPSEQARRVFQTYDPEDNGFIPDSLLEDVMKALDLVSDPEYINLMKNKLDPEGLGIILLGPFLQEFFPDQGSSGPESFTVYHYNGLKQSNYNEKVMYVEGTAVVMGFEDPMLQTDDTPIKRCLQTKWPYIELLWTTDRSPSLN

[8] = biological target: OTUD5(p177S) (Homo sapiens, UniProt Q96G74); assay: DUB/cathepsin selectivity biochemical assay
[9] = Mouse pharmacokinetics (IV clearance, oral bioavailability); format: in vivo; conditions: blood
[10] = biological target: USP5 (Homo sapiens, UniProt P45974); assay: DUB/cathepsin selectivity biochemical assay
[11] = biological target: UchL5 (Homo sapiens, UniProt Q9Y5K5); assay: DUB/cathepsin selectivity biochemical assay
[12] = biological target: T1, VCPIP FL (Homo sapiens, UniProt Q96JH7); assay: DUB/cathepsin selectivity biochemical assay
T1 construct: VCPIP FL

[13] = system: AAV-A53T-SNCA PD mouse model; assay: Total αSyn and phospho-S129 αSyn immunostaining in SNpc, AAV-A53T-SNCA mouse model (compound study); format: in vivo
Description: For the compound study, the fixed, cryoprotected and frozen midbrain samples were sectioned as coronal sections at 100 µm intervals through SNpc and ventral tegmental area (VTA) and mounted on glass slides. Sectioning was started at −2.6 mm from bregma and continued to −3.7 mm from bregma in the AP axis (coordinates based on Franklin & Paxinos: The Mouse Brain in Stereotaxic Coordinates). For the immunostaining, the sections were stained with anti-TH following permeabilization. The stained sections were scanned with the Olympus VS120 slide scanner and analyzed with a VIS-Visiopharm Integrator System (Visiopharm, Denmark) by a blinded data analyst. All cells of interest with visible nuclei were labeled manually and counted using an APP (Analysis Protocol Package), scaled by section thickness and sectioning interval to estimate the total cell population in the SNpc. For immunostaining of Ser129 αSyn phosphorylation, TSA amplification was used with primary antibody ab51253 (Abcam). Blinded analysis was used, and positive cells per area were determined. For dual IF IHC of Iba1 (WAKO) and GFAP (ab4674 – Abcam), the stained sections were scanned and analyzed by a blinded data analyst. Analysis determines the percentage of positive staining area [%area = (stained area/region area) * (100)]. To calculate % of stained area, the same threshold value was applied to all sections with the same antibody staining. All pixels above the threshold value were considered positive. All striatal densitometry and neuronal counting data for both KO and inhibitor studies were obtained by an investigator blinded to genotype and treatment.

[14] = biological target: USP47 (Homo sapiens, UniProt Q96K76); assay: DUB/cathepsin selectivity biochemical assay
Chain of USP47 (Q96K76 whole entry, species assumed): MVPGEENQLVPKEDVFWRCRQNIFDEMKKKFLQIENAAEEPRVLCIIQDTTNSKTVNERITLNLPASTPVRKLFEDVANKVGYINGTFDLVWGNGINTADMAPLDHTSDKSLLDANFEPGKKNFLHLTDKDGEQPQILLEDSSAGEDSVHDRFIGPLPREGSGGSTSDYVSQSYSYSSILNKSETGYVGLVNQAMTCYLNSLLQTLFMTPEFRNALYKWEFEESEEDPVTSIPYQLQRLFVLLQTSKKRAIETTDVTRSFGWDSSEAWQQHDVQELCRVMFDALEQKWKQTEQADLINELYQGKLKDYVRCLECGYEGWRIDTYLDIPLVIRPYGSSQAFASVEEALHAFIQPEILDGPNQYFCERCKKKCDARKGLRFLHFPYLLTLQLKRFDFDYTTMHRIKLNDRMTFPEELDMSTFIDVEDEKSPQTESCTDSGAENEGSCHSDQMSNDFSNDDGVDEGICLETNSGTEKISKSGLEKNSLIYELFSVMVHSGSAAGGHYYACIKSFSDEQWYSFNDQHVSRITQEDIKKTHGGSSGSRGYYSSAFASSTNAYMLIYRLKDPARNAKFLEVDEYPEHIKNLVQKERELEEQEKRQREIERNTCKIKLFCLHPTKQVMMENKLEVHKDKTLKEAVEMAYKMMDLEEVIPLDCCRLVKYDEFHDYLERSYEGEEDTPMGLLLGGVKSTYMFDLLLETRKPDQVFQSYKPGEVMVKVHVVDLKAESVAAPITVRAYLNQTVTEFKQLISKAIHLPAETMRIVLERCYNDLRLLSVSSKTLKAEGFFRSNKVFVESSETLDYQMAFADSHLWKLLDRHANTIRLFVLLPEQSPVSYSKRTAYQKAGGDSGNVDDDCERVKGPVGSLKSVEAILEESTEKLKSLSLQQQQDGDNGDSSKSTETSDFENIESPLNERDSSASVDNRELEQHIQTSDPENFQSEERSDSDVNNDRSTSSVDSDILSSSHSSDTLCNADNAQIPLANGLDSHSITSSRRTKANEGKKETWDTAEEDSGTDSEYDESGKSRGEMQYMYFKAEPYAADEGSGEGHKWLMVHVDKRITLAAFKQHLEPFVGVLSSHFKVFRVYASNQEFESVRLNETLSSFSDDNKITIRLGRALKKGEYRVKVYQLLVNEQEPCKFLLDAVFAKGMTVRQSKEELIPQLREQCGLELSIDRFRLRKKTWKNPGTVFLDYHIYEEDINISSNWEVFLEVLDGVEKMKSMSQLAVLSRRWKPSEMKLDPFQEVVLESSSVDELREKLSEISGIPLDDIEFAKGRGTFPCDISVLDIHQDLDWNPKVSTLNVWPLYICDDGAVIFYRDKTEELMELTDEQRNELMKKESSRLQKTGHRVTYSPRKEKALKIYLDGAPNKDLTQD

[15] = biological target: USP13 (Homo sapiens, UniProt Q92995); assay: DUB/cathepsin selectivity biochemical assay
Chain of USP13 (Q92995 whole entry, species assumed): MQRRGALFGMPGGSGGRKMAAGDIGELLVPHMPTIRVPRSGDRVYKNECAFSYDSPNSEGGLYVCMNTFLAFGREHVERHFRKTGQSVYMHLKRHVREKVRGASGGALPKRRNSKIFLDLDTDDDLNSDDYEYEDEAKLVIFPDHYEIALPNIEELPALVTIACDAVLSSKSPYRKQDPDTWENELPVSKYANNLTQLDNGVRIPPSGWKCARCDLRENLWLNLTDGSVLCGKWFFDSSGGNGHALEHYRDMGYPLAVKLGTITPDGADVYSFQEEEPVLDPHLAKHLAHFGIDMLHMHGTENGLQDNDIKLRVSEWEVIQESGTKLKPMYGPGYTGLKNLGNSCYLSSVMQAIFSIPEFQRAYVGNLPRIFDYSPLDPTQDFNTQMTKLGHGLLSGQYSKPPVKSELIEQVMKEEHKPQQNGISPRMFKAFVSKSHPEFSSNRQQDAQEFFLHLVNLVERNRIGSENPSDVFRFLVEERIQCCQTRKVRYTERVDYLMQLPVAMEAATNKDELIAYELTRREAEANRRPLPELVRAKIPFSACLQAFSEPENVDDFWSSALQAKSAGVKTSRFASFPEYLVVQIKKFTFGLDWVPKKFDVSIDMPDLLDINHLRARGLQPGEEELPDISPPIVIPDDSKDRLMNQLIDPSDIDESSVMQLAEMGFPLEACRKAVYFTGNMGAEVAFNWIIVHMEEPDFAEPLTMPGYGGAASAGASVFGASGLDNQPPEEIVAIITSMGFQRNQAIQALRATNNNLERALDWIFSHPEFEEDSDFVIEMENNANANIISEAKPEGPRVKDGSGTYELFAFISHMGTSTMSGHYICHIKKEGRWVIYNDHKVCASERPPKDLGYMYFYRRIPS

[16] = biological target: OTUB1/UBCH5B (Homo sapiens, UniProt Q96FW1); assay: DUB/cathepsin selectivity biochemical assay
Chain of OTUB1/UBCH5B (Q96FW1 whole entry, species assumed): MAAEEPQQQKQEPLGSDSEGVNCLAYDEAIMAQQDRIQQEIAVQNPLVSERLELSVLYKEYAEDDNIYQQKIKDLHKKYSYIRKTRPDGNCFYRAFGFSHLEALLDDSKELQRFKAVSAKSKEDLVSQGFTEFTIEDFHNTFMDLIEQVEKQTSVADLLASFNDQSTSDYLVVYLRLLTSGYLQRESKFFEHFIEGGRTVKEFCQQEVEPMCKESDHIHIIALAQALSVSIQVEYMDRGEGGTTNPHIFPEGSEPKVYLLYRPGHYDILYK
Chain of OTUB1/UBCH5B (P62837 whole entry partner, species assumed): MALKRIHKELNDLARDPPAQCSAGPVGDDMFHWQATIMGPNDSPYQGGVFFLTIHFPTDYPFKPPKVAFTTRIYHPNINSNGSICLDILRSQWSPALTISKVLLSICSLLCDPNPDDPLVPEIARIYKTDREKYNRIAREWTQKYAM

[17] = biological target: USP11 (Homo sapiens, UniProt P51784); assay: DUB/cathepsin selectivity biochemical assay
[18] = biological target: OTUB2 (Homo sapiens, UniProt Q96DC9); assay: DUB/cathepsin selectivity biochemical assay
[19] = biological target: USP25 (Homo sapiens, UniProt Q9UHP3); assay: DUB/cathepsin selectivity biochemical assay
[20] = biological target: USP2 (Homo sapiens, UniProt O75604); assay: DUB/cathepsin selectivity biochemical assay
Chain of USP2 (O75604 whole entry, species assumed): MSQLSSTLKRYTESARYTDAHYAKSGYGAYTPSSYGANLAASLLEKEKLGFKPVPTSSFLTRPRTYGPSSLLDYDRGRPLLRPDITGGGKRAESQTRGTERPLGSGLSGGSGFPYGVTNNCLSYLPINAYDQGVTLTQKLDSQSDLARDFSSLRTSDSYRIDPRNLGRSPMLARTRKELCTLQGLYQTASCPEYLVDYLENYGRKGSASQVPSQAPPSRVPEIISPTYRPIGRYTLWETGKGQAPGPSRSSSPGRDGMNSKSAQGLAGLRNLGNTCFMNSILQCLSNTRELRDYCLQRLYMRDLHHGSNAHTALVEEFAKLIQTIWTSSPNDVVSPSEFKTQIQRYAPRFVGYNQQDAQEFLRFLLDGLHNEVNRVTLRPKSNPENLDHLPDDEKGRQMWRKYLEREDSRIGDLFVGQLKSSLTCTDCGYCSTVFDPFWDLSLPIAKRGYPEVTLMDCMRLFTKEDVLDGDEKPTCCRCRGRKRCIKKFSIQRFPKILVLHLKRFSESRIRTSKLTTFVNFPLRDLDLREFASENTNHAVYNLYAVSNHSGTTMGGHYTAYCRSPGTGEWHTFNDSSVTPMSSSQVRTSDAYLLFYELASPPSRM

[21] = biological target: OTUD6B (Homo sapiens, UniProt Q8N6M0); assay: DUB/cathepsin selectivity biochemical assay
[22] = biological target: USP6 (Homo sapiens, UniProt P35125); assay: DUB/cathepsin selectivity biochemical assay
[23] = biological target: USP12/UAF1 (Homo sapiens, UniProt O75317); assay: DUB/cathepsin selectivity biochemical assay
[24] = biological target: Trabid (Homo sapiens, UniProt Q9UGI0); assay: DUB/cathepsin selectivity biochemical assay
[25] = AAV-A53T + MTX115325 (50 mg/kg), Group 5, Left hemisphere, individual animal values (Animal ID in r3)
[26] = AAV-A53T + MTX115325 (50 mg/kg), Group 5, Right hemisphere, individual animal values (Animal ID in r3)

Structure (SMILES): C[C@@H]1[C@H]2CCN(C(=O)c3ncc(-c4ccnc(C#N)c4)o3)[C@H]2CN1C#N [MTX115325]
- IC50 [1]: > 300 µM
- TOM20 ubiquitylation signal, MTX115325 + AO (Figure 4b) ([2]; 0.0001 µM): 1.19
- TOM20 ubiquitylation signal, MTX115325 + AO (Figure 4b) ([2]; 0.0003 µM): 1.5
- TOM20 ubiquitylation signal, MTX115325 + AO (Figure 4b) ([2]; 0.001 µM): 1.43
- TOM20 ubiquitylation signal, MTX115325 + AO (Figure 4b) ([2]; 0.003 µM): 1.6
- TOM20 ubiquitylation signal, MTX115325 + AO (Figure 4b) ([2]; 0.01 µM): 2.01
- TOM20 ubiquitylation signal, MTX115325 + AO (Figure 4b) ([2]; 0.03 µM): 2.55
- TOM20 ubiquitylation signal, MTX115325 + AO (Figure 4b) ([2]; 0.1 µM): 3.08
- TOM20 ubiquitylation signal, MTX115325 + AO (Figure 4b) ([2]; 0.3 µM): 3.55
- TOM20 ubiquitylation signal, MTX115325 + AO (Figure 4b) ([2]; 1 µM): 3.5
- TOM20 ubiquitylation signal, MTX115325 + AO (Figure 4b) ([2]; 3 µM): 3.33
- TOM20-Ub 1.5X interpolated value (representative profile, Fig. 4b) ([2]; HeLa cells, 90 min, representative concentration-response): 0.0020 µM
- TOM20-Ub EC1.5x ([2]; HeLa-PARKIN + A/O, 90 min): 10 nM
- EC50 ([2]; HeLa cells, 90 min, representative concentration-response, read-out: TOM20-Ub EC50 (representative profile, Fig. 4b)): 0.022 µM
- EC50 ([2]; HeLa-PARKIN + A/O, 90 min, read-out: TOM20-Ub EC50): 0.032 µM
- IC50 [3]: > 300 µM
- IC50 [4]: > 300 µM
- IC50 [5]: 120 µM
- IC50 [6]: > 300 µM
- IC50 [7]: > 300 µM
- IC50 [8]: > 300 µM
- bioavailability ([9]; 10 mg/kg oral gavage vs 2 mg/kg IV): 98%
- clearance ([9]; IV 2 mg/kg): 19.7 mL/min/kg
- IC50 [10]: > 300 µM
- IC50 [11]: > 300 µM
- IC50 [12]: > 300 µM
- Phosphorylated S129-αSyn ([13]; 50 mg/kg, SNpc): significantly reduced
- Figure S7c immunostaining quantification, Left [13, 25]: 0 (7×) and 0.04487 and 0.008105 and 0.007836 and 0.01908 and 0.009848 and 0.001515 and 0.003247 and 0.005828
- Figure S7d immunostaining quantification, Left [13, 25]: 0 (10×) and 1.603 and 0.7671 and 1.12 and 0.7902
- Figure S7c immunostaining quantification, Right [13, 26]: 0.007974 and 0.07707 and 0.1923 and 0.06947 and 0.001983 and 0 (5×) and 0.06633 and 0.1857 and 0.01165 and 0.002029 and 6.4046e-5
- Figure S7d immunostaining quantification, Right [13, 26]: 57.3627 and 99.9359 and 9.299 and 6.893 and 1.412 and 0 (4×) and 0.2913 and 18.3383 and 84.6359 and 0.2072 and 0.6527
- IC50 [14]: 212 µM
- IC50 [15]: > 300 µM
- IC50 [16]: > 300 µM
- IC50 [17]: 291 µM
- IC50 [18]: > 300 µM
- IC50 [19]: 93.2 µM
- IC50 ([20]; Supplementary Fig. 6a, read-out: Selectivity vs DUBs (IC50), USP2): 24.9 µM
- IC50 ([20]; USP2, read-out: IC50): 24.9 µM
- IC50 [21]: > 300 µM
- IC50 [22]: 96.3 µM
- IC50 [23]: > 300 µM
- IC50 [24]: > 300 µM
